Laboratory results from patent publication US5480887A, “Protease inhibitors” (Eli Lilly and Company, priority 1994, dated 1996).
Like-named read-outs stand apart in the source and are kept apart here.

Columns and labels:
HIV = assay: microbe, parasite or virus in culture; assay type: cell-based; details: XTT, 450 nm, * (n) = average of n assays, read-out: Antiviral Activity IC90
Description: In addition, the compounds described in the present application may be tested using an antiviral cell culture assay as described in Weislow, O.S., J. of National Cancer Institute, 81(8), pages 577-586 (Apr. 19, 1989) herein incorporated by reference.
This assay compares the viability of HIV-infected cells in a cell culture medium relative to the viability of such cells in the presence of a test compound. The concentration of test compound necessary to inhibit 90% of the virus is then measured using the viability of the cells as an indicator of viral inhibition. This assay is carried out using cell lines that are sensitive to the lyric effects of HIV infection.
Specifically, this assay utilizes the metabolic reduction of a tetrazolium reagent, 2,3-bis[2-methoxy-4-nitro-5-sulfophenyl]-5-[(phenylamino)carbonyl]-2H-tetrazolium hydroxide (XTT). In the presence of a viable cell, the tetrazolium reagent, XTT, is reduced to provide XTT formazan which may be quantified using colorimetric determination (at 450 nm). The intensity of the chromogenic signal is directly proportional to the concentration of the XTT formazan, thus providing a measure of the quantity of viable cells.

HIV-1 Protease = molecular target: T1, HIV-1 Protease (Human immunodeficiency virus type 1 group M subtype B, UniProt P04585); assay: biochemical; details: for IC50: read-out: Fluorescence Assay IC50 (converted); for inhibition at 0.00016 µg/mL: read-out: % inhibition at the stated concentration (ICx (0.16))
T1 construct: HIV-1 Protease
Description: These compounds may be assayed using two assays: (1) an enzyme inhibition assay, and (2) an antiviral cell culture assay.
This assay is described in detail in published European Patent Application (EPA) 0 526 009, herein incorporated by reference. Using this assay, a number of the compounds, prepared above, were assayed for HIV protease inhibitory activity.
The assay is unable to test compounds at less than a concentration of 0.16 ng/mL.

[1] = Human immunodeficiency virus 1, concentration inhibiting 90% of the viral-induced toxicity
[2] = concentration inhibiting 90% of the viral-induced toxicity
[3] = concentration inhibiting 50% of the enzyme, * = calculated average with n number of assays
[4] = at 0.16 ng/mL, lowest testable concentration

Row | SMILES | IC50 (HIV-1 Protease) [µM] | IC90 (HIV; [1]) [µM] | other results
1 | CC(C)(C)NC(=O)[C@@H]1C[C@@H]2SCC[C@@H]2CN1C[C@@H](O)[C@H](CSc1ccccc1)NC(=O)[C@H](CC(N)=O)NC(=O)c1ccc2ccccc2n1 [Example 14C] | – | 0.028 | –
2 | CC(C)(C)NC(=O)[C@@H]1C[C@@H]2SCC[C@@H]2CN1C[C@@H](O)[C@H](CSc1ccccc1)NC(=O)O[C@@H]1CCS(=O)(=O)C1 [11C-11 mg sample] | – | 0.026 | IC50 (HIV-1 Protease; [3]): 0.00152 µM
3 | CC(C)(C)NC(=O)[C@@H]1C[C@@H]2SCC[C@@H]2CN1C[C@@H](O)[C@H](Cc1ccccc1)NC(=O)[C@@H](CS(=O)(=O)c1ccc2ccccc2c1)NS(C)(=O)=O [Example 17B, N-t-Butyl-octahydro-5[2R-hydroxy-3S-phenylmethyl-4-aza-5-oxo-6S-N(methylsulfonyl)amino-7-naphth-2-ylsulfonyl-heptyl]-(3aR,7aS)-thieno[3,2-c]pyridine-(6S)-carboxamide] | – | 0.078 | inhibition at 0.00016 µg/mL (HIV-1 Protease; [4]): 60%
4 | CC(C)[C@H]1[C@@H](OC(=O)N[C@@H](CSc2ccccc2)[C@H](O)CN2C[C@H]3CCS[C@H]3C[C@H]2C(=O)NC(C)(C)C)CCS1(=O)=O [10B-51 mg sample] | 0.00095 | 0.077 | –
5 | C[C@@H]1[C@H](OC(=O)N[C@@H](CSc2ccccc2)[C@H](O)CN2C[C@H]3CCS[C@H]3C[C@H]2C(=O)NC(C)(C)C)CCS1(=O)=O [31D-Fraction A] | – | – | IC90 (HIV; [2]): 0.0303 µM
6 | C[C@H]1OCC[C@H]1OC(=O)N[C@@H](CSc1ccccc1)[C@H](O)CN1C[C@H]2CCS[C@H]2C[C@H]1C(=O)NC(C)(C)C [13B-17 mg sample] | 0.00272 | 0.88 | –
7 | C[C@@H]1OCC[C@@H]1OC(=O)N[C@@H](CSc1ccccc1)[C@H](O)CN1C[C@H]2CCS[C@H]2C[C@H]1C(=O)NC(C)(C)C [13B-26 mg sample] | – | 0.09 | inhibition at 0.00016 µg/mL (HIV-1 Protease): 71%
8 | CC(C)[C@@H]1[C@H](OC(=O)N[C@@H](CSc2ccccc2)[C@H](O)CN2C[C@H]3CCS[C@H]3C[C@H]2C(=O)NC(C)(C)C)CCS1(=O)=O [Example 40D, N-t-Butyl-octahydro-5[2R-hydroxy-3R-N(1',1'-dioxo-2'R-isopropyl-tetrahydrothiophen-3'R-yloxycarbonyl)amino-4-phenylthio-)-butyl]-(3aR,7aS)-thieno[3,2-c] pyridine-(6S)-carboxamide methanesulfonate] | – | 0.0071 | –
9 | CC(C)[C@@H]1SCC[C@@H]1OC(=O)N[C@@H](CSc1ccccc1)[C@H](O)CN1C[C@H]2CCS[C@H]2C[C@H]1C(=O)NC(C)(C)C [9B-23 mg sample] | – | 0.604 | IC50 (HIV-1 Protease; [3]): 0.00262 µM
10 | CC(C)(C)NC(=O)[C@@H]1C[C@@H]2SCC[C@@H]2CN1C[C@@H](O)[C@H](Cc1ccccc1)NC(=O)[C@@H](CS(=O)(=O)c1ccc2ccccc2c1)NC(=O)C(F)(F)F [Example 17C, N-t-Butyl-octahydro-5[2R-hydroxy-3S-phenylmethyl-4-aza-5-oxo-6S-N(trifluoromethylcarbonyl)amino-7-naphth-2-ylsulfonyl-heptyl]-(3aR,7aS)-thieno[3,2-c]pyridine-(6S)-carboxamide] | – | 0.031 | inhibition at 0.00016 µg/mL (HIV-1 Protease; [4]): 76%
11 | CC(C)(C)NC(=O)[C@@H]1C[C@@H]2SCC[C@@H]2CN1C[C@@H](O)[C@H](Cc1ccccc1)NC(=O)[C@@H](CS(=O)(=O)c1cccc2cccnc12)NC(=O)C(F)(F)F [Example 24B, N-t-Butyl-octahydro-5[2R-hydroxy-3S-phenylmethyl-4-aza-5-oxo-6S-N(trifluoromethylcarbonyl)amino-7-quinolin-8-ylsulfonyl-heptyl]-(3aR,7aS)-thieno[3,2-c]pyridine-(6S)-carboxamide] | – | 0.0818 | –
12 | CC(C)(C)NC(=O)[C@@H]1C[C@@H]2SCC[C@@H]2CN1C[C@@H](O)[C@H](CSc1ccccc1)NC(=O)C[C@@H]1CCS(=O)(=O)C1 [Example 12, N-t-Butyl-octahydro-5[2R-hydroxy-3R-N(1',1'-dioxo-tetrahydrothiophen-3'R-ylmethylcarbonyl)amino-4-phenylthio-butyl]-(3aR,7aS)-thieno[3,2-c] pyridine-(6S)-carboxamide] | – | – | Fluorescence Assay IC50 (HIV-1 Protease; [3]): 0.44 ng/mL; IC90 (HIV; [2]): 0.096 µM
13 | C[C@H]1[C@@H](OC(=O)N[C@@H](CSc2ccccc2)[C@H](O)CN2C[C@H]3CCS[C@H]3C[C@H]2C(=O)NC(C)(C)C)CCS1(=O)=O [31D-Fraction B] | – | – | IC90 (HIV; [2]): 0.0314 µM
14 | CC(C)(C)NC(=O)[C@@H]1C[C@@H]2SCC[C@@H]2CN1C[C@@H](O)[C@H](Cc1ccccc1)NC(=O)[C@@H](CS(=O)(=O)c1ccc(F)cc1)NS(C)(=O)=O [Example 19B, N-t-Butyl-octahydro-5[2R-hydroxy-3S-phenylmethyl-4-aza-5-oxo-6S-N(methylsulfonyl)amino-7-p-fluorophenylsulfonyl-heptyl]-(3aR,7aS)-thieno[3,2-c]pyridine-(6S)-carboxamide] | – | 0.233 | IC50 (HIV-1 Protease; [3]): 0.000224 µM

More lines, main results first:

Row | IC50 (HIV-1 Protease) [µM] | SMILES | IC90 (HIV; [1]) [µM] | other results
15 | 0.000358 | C[C@H]1[C@@H](OC(=O)N[C@@H](CSc2ccccc2)[C@H](O)CN2C[C@H]3CCS[C@H]3C[C@H]2C(=O)NC(C)(C)C)CCS1(=O)=O [Example 37D, N-t-Butyl-octahydro-5[2R-hydroxy-3R-N(1',1'-dioxo-2'S-methyl-tetrahydrothiophen-3'S-yloxycarbonyl)amino-4-phenylthio)-butyl]-(3aR,7aS)-thieno[3,2-c] pyridine-(6S)-carboxamide methanesulfonate] | – | IC90 (HIV; [2]): 0.0018 µM
16 | 0.000389 | CC(C)(C)NC(=O)[C@@H]1C[C@@H]2SCC[C@@H]2CN1C[C@@H](O)[C@H](Cc1ccccc1)NC(=O)[C@@H](CS(=O)(=O)c1cccc2cccnc12)NS(C)(=O)=O [Example 26, N-t-Butyl-octahydro-5[2R-hydroxy-3S-phenylmethyl-4-aza-5-oxo-6S-N(methylsulfonyl)amino-7-quinolin-8-ylsulfonyl-heptyl]-(3aR,7aS)-thieno[3,2-c]pyridine-(6S)-carboxamide] | 0.225 | –
17 | 0.0274 | C[C@H]1[C@H](OC(=O)N[C@@H](CSc2ccccc2)[C@H](O)CN2C[C@H]3CCS[C@H]3C[C@H]2C(=O)NC(C)(C)C)CCS1(=O)=O [34-Fraction B] | 0.0321 | –
18 | 0.00728 | C[C@@H]1[C@H](OC(=O)N[C@@H](CSc2ccccc2)[C@H](O)CN2C[C@H]3CCS[C@H]3C[C@H]2C(=O)NC(C)(C)C)CCS1(=O)=O [Example 38D, N-t-Butyl-octahydro-5[2R-hydroxy-3R-N(1',1'-dioxo-2'R-methyl-tetrahydrothiophen-3'R-yloxycarbonyl)amino-4-phenylthio)-butyl]-(3aR,7aS)-thieno[3,2c] pyridine-(6S)-carboxamide methanesulfonate] | – | IC90 (HIV; [2]): 0.0071 µM
19 | 0.000239 | CC(=O)N[C@H](CS(=O)(=O)c1cccc2cccnc12)C(=O)N[C@@H](Cc1ccccc1)[C@H](O)CN1C[C@H]2CCS[C@H]2C[C@H]1C(=O)NC(C)(C)C [Example 25, N-t-Butyl-octahydro-5[2R-hydroxy-3S-phenylmethyl-4-aza-5-oxo-6S-N(acetyl)amino-7-quinolin-8-ylsulfonyl-heptyl]-(3aR,7aS)-thieno[3,2-c]pyridine-(6S)-carboxamide] | 0.279 | –
20 | 0.00196 | CC(C)(C)NC(=O)[C@@H]1C[C@@H]2SCC[C@@H]2CN1C[C@@H](O)[C@H](CSc1ccccc1)NC(=O)[C@@H](CS(=O)(=O)c1ccc2ccccc2c1)NC(=O)C(F)(F)F [Example 30B, N-t-Butyl-octahydro-5[2R-hydroxy-3R-phenylthiomethyl-4-aza-5-oxo-6S-N(trifluoromethylcarbonyl)amino-7-naphth-2-ylsulfonyl-heptyl]-(3aR,7aS)-thieno[3,2-c]pyridine-(6S)-carboxamide] | 0.203 | –
21 | 0.00728 | C[C@@H]1[C@@H](OC(=O)N[C@@H](CSc2ccccc2)[C@H](O)CN2C[C@H]3CCS[C@H]3C[C@H]2C(=O)NC(C)(C)C)CCS1(=O)=O [34-Fraction A] | 0.0452 | –
22 | 0.0111 | CC(C)(C)NC(=O)[C@@H]1C[C@@H]2SCC[C@@H]2CN1C[C@@H](O)[C@H](CSc1ccccc1)NC(=O)[C@@H](CS(=O)(=O)c1ccc(F)cc1)NC(=O)C(F)(F)F [Example 29, N-t-Butyl-octahydro-5[2R-hydroxy-3R-phenylthiomethyl-4-aza-5-oxo-6S-N(trifluoromethylcarbonyl)amino-7-p-fluorophenylsulfonyl-heptyl]-(3aR,7aS)-thieno[3,2-c]pyridine-(6S)-carboxamide] | 0.754 | –
